# Experimental data reported in ChEMBL document CHEMBL3885881, “DrugMatrix”.
# Species: Rattus norvegicus
# Test: DrugMatrix - Regimen: Daily Repeat
# Assay type: toxicity, organism-based, Sprague-Dawley
# Parameters: regimen Daily Repeat, gender Male, age 6-8 weeks
# Conditions: in vivo, po, route oral GAVAGE, […]; for ABSOLUTE BASOPHIL / ABSOLUTE EOSINOPHIL / ABSOLUTE LYMPHOCYTE / ABSOLUTE MONOCYTE / ABSOLUTE SEGMENTED NEUTROPHIL / BASOPHIL / EOSINOPHIL / ERYTHROCYTE COUNT / HEMATOCRIT / HEMOGLOBIN / LEUKOCYTE COUNT / LYMPHOCYTE / MEAN CORPUSCULAR HEMOGLOBIN / MEAN CORPUSCULAR HEMOGLOBIN CONCENTRATION / MEAN CORPUSCULAR VOLUME / MONOCYTE / NEUTROPHIL / NUCLEATED RED BLOOD CELLS / PLATELET COUNT: tissue Blood; for ALANINE AMINOTRANSFERASE / ALBUMIN / ALKALINE PHOSPHATASE / ASPARTATE AMINOTRANSFERASE / BLOOD UREA NITROGEN / CARBON DIOXIDE / CHLORIDE / CHOLESTEROL / CREATINE PHOSPHOKINASE / CREATININE / GLUCOSE / LACTATE DEHYDROGENASE / LIPASE / PHOSPHORUS / POTASSIUM / SODIUM / TOTAL BILIRUBIN / TOTAL PROTEIN / URIC ACID: tissue Plasma
# [1] = 6 mg/kg, 120 h, dose level Low, time 5 day
# [2] = 74 mg/kg, 72 h, dose level High, time 3 day
# [3] = 74 mg/kg, 120 h, dose level High, time 5 day
smiles,measurement,setting,value
CO[C@H]1O[C@@H]2O[C@@]3(C)CC[C@H]4[C@H](C)CC[C@@H]([C@H]1C)[C@@]24OO3,ABSOLUTE BASOPHIL,[1],0 CELLS/uL
same,ABSOLUTE EOSINOPHIL,[1],153 CELLS/uL
same,ABSOLUTE LYMPHOCYTE,[1],12396 CELLS/uL
same,ABSOLUTE MONOCYTE,[1],197.67 CELLS/uL
same,ABSOLUTE SEGMENTED NEUTROPHIL,[1],1920 CELLS/uL
same,BASOPHIL,[1],0%
same,EOSINOPHIL,[1],1%
same,ERYTHROCYTE COUNT,[1],5.88 x10E6/uL
same,HEMATOCRIT,[1],36.63%
same,HEMOGLOBIN,[1],13.47 G/DL
same,LEUKOCYTE COUNT,[1],14.67 x10E3/uL
same,LYMPHOCYTE,[1],84.33%
same,MEAN CORPUSCULAR HEMOGLOBIN,[1],22.93 pg
same,MEAN CORPUSCULAR HEMOGLOBIN CONCENTRATION,[1],36.8 G/DL
same,MEAN CORPUSCULAR VOLUME,[1],62.33 fL
same,MONOCYTE,[1],1.33%
same,NEUTROPHIL,[1],13.33%
same,NUCLEATED RED BLOOD CELLS,[1],0 /100WBC
same,PLATELET COUNT,[1],1198.67 x10E3/uL
same,ALANINE AMINOTRANSFERASE,[1],52.67 u/L
same,ALBUMIN,[1],4.37 G/DL
same,ALKALINE PHOSPHATASE,[1],430.33 u/L
same,ASPARTATE AMINOTRANSFERASE,[1],101 u/L
same,BLOOD UREA NITROGEN,[1],17.67 mg/dL
same,CARBON DIOXIDE,[1],23.33 mmol/L
same,CHLORIDE,[1],105.67 MEQ/L
same,CHOLESTEROL,[1],58.67 mg/dL
same,CREATINE PHOSPHOKINASE,[1],552.33 u/L
same,CREATININE,[1],0.16 mg/dL
same,GLUCOSE,[1],160 mg/dL
same,LACTATE DEHYDROGENASE,[1],887.67 u/L
same,LIPASE,[1],8.33 u/L
same,PHOSPHORUS,[1],11.77 mg/dL
same,POTASSIUM,[1],6.02 MEQ/L
same,SODIUM,[1],144.53 MEQ/L
same,TOTAL BILIRUBIN,[1],0.17 mg/dL
same,TOTAL PROTEIN,[1],5.93 G/DL
same,URIC ACID,[1],1.83 mg/dL
same,ABSOLUTE BASOPHIL,[2],0 CELLS/uL
same,ABSOLUTE EOSINOPHIL,[2],390 CELLS/uL
same,ABSOLUTE LYMPHOCYTE,[2],14550 CELLS/uL
same,ABSOLUTE MONOCYTE,[2],453 CELLS/uL
same,ABSOLUTE SEGMENTED NEUTROPHIL,[2],1407 CELLS/uL
same,BASOPHIL,[2],0%
same,EOSINOPHIL,[2],2.33%
same,ERYTHROCYTE COUNT,[2],5.21 x10E6/uL
same,HEMATOCRIT,[2],33.1%
same,HEMOGLOBIN,[2],12.6 G/DL
same,LEUKOCYTE COUNT,[2],16.8 x10E3/uL
same,LYMPHOCYTE,[2],86.67%
same,MEAN CORPUSCULAR HEMOGLOBIN,[2],24.23 pg
same,MEAN CORPUSCULAR HEMOGLOBIN CONCENTRATION,[2],38.07 G/DL
same,MEAN CORPUSCULAR VOLUME,[2],63.67 fL
same,MONOCYTE,[2],2.67%
same,NEUTROPHIL,[2],8.33%
same,NUCLEATED RED BLOOD CELLS,[2],0 /100WBC
same,PLATELET COUNT,[2],1173 x10E3/uL
same,ALANINE AMINOTRANSFERASE,[2],46 u/L
same,ALBUMIN,[2],4.13 G/DL
same,ALKALINE PHOSPHATASE,[2],349.67 u/L
same,ASPARTATE AMINOTRANSFERASE,[2],77.33 u/L
same,BLOOD UREA NITROGEN,[2],16 mg/dL
same,CARBON DIOXIDE,[2],27 mmol/L
same,CHLORIDE,[2],103.33 MEQ/L
same,CHOLESTEROL,[2],66.67 mg/dL
same,CREATINE PHOSPHOKINASE,[2],259.33 u/L
same,CREATININE,[2],0.23 mg/dL
same,GLUCOSE,[2],144.67 mg/dL
same,LACTATE DEHYDROGENASE,[2],331.33 u/L
same,LIPASE,[2],9.33 u/L
same,PHOSPHORUS,[2],10.07 mg/dL
same,POTASSIUM,[2],6.54 MEQ/L
same,SODIUM,[2],142.23 MEQ/L
same,TOTAL BILIRUBIN,[2],0.2 mg/dL
same,TOTAL PROTEIN,[2],5.63 G/DL
same,URIC ACID,[2],1.17 mg/dL
same,ABSOLUTE BASOPHIL,[3],0 CELLS/uL
same,ABSOLUTE EOSINOPHIL,[3],257.33 CELLS/uL
same,ABSOLUTE LYMPHOCYTE,[3],17040 CELLS/uL
same,ABSOLUTE MONOCYTE,[3],413.67 CELLS/uL
same,ABSOLUTE SEGMENTED NEUTROPHIL,[3],1822.33 CELLS/uL
same,BASOPHIL,[3],0%
same,EOSINOPHIL,[3],1.33%
same,ERYTHROCYTE COUNT,[3],6.13 x10E6/uL
same,HEMATOCRIT,[3],36.63%
same,HEMOGLOBIN,[3],13.57 G/DL
same,LEUKOCYTE COUNT,[3],19.53 x10E3/uL
same,LYMPHOCYTE,[3],87%
same,MEAN CORPUSCULAR HEMOGLOBIN,[3],22.17 pg
same,MEAN CORPUSCULAR HEMOGLOBIN CONCENTRATION,[3],37.03 G/DL
same,MEAN CORPUSCULAR VOLUME,[3],59.77 fL
same,MONOCYTE,[3],2%
same,NEUTROPHIL,[3],9.67%
same,NUCLEATED RED BLOOD CELLS,[3],0.33 /100WBC
same,PLATELET COUNT,[3],1300.33 x10E3/uL
same,ALANINE AMINOTRANSFERASE,[3],55.33 u/L
same,ALBUMIN,[3],4.3 G/DL
same,ALKALINE PHOSPHATASE,[3],329 u/L
same,ASPARTATE AMINOTRANSFERASE,[3],100 u/L
same,BLOOD UREA NITROGEN,[3],16.33 mg/dL
same,CARBON DIOXIDE,[3],25 mmol/L
same,CHLORIDE,[3],102.67 MEQ/L
same,CHOLESTEROL,[3],51.67 mg/dL
same,CREATINE PHOSPHOKINASE,[3],790.67 u/L
same,CREATININE,[3],0.21 mg/dL
same,GLUCOSE,[3],171.67 mg/dL
same,LACTATE DEHYDROGENASE,[3],649.67 u/L
same,LIPASE,[3],9.67 u/L
same,PHOSPHORUS,[3],12.37 mg/dL
same,POTASSIUM,[3],5.73 MEQ/L
same,SODIUM,[3],143.53 MEQ/L
same,TOTAL BILIRUBIN,[3],0.13 mg/dL
same,TOTAL PROTEIN,[3],5.8 G/DL
same,URIC ACID,[3],1.73 mg/dL
